The values that follow come from patent US12178805B2, “Inhibitors of PDE6Delta for use in the prevention and/or treatment of epilepsy and/or neurodegenerative disorders” (ReMYND N.V., priority 2017, dated 2024).

The subject of assay [1] is VGCC activity in primary neurons. In words: KCl-induced Ca2+ influx (VGCC activity) in primary neurons. In kind it is cell-based, mouse. To be noted: for inhibition at 10 µM: Mus musculus, Primary neuron, relative to vehicle treated neurons, KCl depolarisation, read-out: % inhibition of cytosolic Ca^2+ influx. The method, then: Examplary compound 6 was tested for its ability to inhibit VGCC activity in primary neurons. Neurons from mouse embryos were harvested and cultured using standard methods (such as used in Schlager et al., 2014. Cell reports, 8(5), pp. 1248-56). To stimulate VGCC activity, neurons were depolarized using 45 mM KCl and incubated with vehicle or 1.5 μM of compound. Calcium influx was measured using fluorescent cytosolic Ca^2+ detection reagent Fura2.
Changes in cytosolic Ca^2+ concentrations were measured after loading the cells with Fura-2 AM (Sigma-Aldrich), a cell permeable fluorescent probe for Ca^2+. Briefly, Fura-2-AM was dissolved in DMSO plus 20% Pluronic Acid (F-127) (Invitrogen) in a 1:1 ratio and diluted in medium to a final concentration of 0.5 μM. Probenecid (Sigma-Aldrich) was added to this loading medium at a final concentration of 2.5 mM. Then, culture medium was replaced by loading medium and after incubation for 1 hour at 37° C. cells were washed twice and replaced with HBSS (Gibco) supplemented with 0.2% FBS and 0.02M HEPES. Next, changes in cytosolic calcium were measured using a FlexStation 3 microplate reader (Molecular Devices) and quantified ratiometric, by calculating changes in the amount of cytosolic Ca^2+ bound Fura-2 (fluorescence intensity at 340 nm) relative to the amount of Ca^2+ unbound Fura-2 (fluorescence intensity at 380 nm). Data was processed in SoftMax Pro 5.4.6 software (Molecular Devices).
Compounds 1-7 were tested at 10 μM for their ability to inhibit Ca^2+ influx in primary neurons (FIG. 5) as described in Example 21 (Table 5). Primary neurons treated with vehicle in which no compound was dissolved was used as a no-effect control. The percentage (%) inhibition of Ca^2+ influx relative to vehicle treated neurons was calculated.

The next assay deals with M17-TAU P301L cells. In words: TAU-toxicity model, LDH leakage of retinoic acid incubated M17-TAU P301L cells. To be noted: non-silenced cells. It is filed as cell-based, human. The source says:
A TAU expression plasmid was constructed by sub-cloning the cDNA of human TAU-P301L (encoding for TAU with proline 301 substituted by a leucine residue) into mammalian expression vector pcDNA3.1 resulting in plasmid pcDNA3.1-TAU P301L. Plasmids pcDNA3.1 and pcDNA3.1-TAU P301L were transfected to human neuroblastoma cells ([…]; ATCC No. CRL-2267) and independent clonal lines with the plasmids stably integrated into the genome were selected. […] Expression of the TAU P301L genes in the cell lines was confirmed by Western analysis.
In degenerated or dead cells lactate dehydrogenase (LDH) leaks out of the cells into the extracellular environment due to a loss of plasma-membrane integrity. This principle was used to determine cytotoxicity by quantifying the level of leaked LDH into the growth medium relative to the sum of total LDH activity from living cells and dead cells.
(§1) The detailed method for determining cytotoxicity was as follows: From appropriate precultures of M17-3.1 and M17-TAU(P301L) cells were seeded at 2500 cells/cm2 in Optimem Reduced Serum without phenol red (Gibco, Cat. 31985-047) supplemented with 1% fetal calf serum, 1 mM sodium pyruvate, 1× non-essential amino acids, 500 μg/ml G418 0.5×antibiotic/antimycotic. After 3 hours of incubation at 37° C./5% CO2 1 volume of Optimem Reduced Serum (same as described above; except without fetal calf serum) supplemented with 2.5 μM all-trans retinoic acid (ATRA) was added. The cells were further incubated for 7 days. Subsequently, LDH activity was determined using Promega Cytotox 96 Non-Radioactive cytotoxicity assay, (Cat. G1780) according the supplier's instructions.
The M17-TAU P301L cell line made it possible to assess the ability of novel compounds to inhibit PDE6δ and counteract TAU cytotoxicity. […] These measurements were used to calculate EC50 values.
On the technique in general: Release of lactate dehydrogenase indicates damage to the cell membrane.

The test system of the next assay is PDE6δ silenced cells. The assay is described as follows: TAU-toxicity model in PDE6δ silenced cells. In kind it is cell-based, human. To be noted: compared with non-silenced cells.
The test system of another assay is RAP1A silenced cells. The assay is described as follows: TAU-toxicity model in RAP1A silenced cells. It is filed as cell-based, human. To be noted: compared with non-silenced cells. Here is the method: as §1
Assay [2] has as its system primary rat hippocampal neurons. The assay is described as follows: ex-vivo inhibition of oligomeric amyloid beta (Aβo/ADDL) toxicity in primary neurons. To be noted: 100 ng/mL, 1000 nM ADDL, 24 h. In kind it is cell-based. The method, then: An exemplary compound of this invention was tested for its ability to inhibit toxicity elicited by oligomeric amyloid beta (Aβo). Neurons from rat embryos were harvested and cultured using standard methods (such as used in Schlager et al., 2014. Cell reports, 8(5), pp. 1248-56.). Differentiated neurons were challenged with Aβo and viability was quantified.
At day in-vitro 19 days after isolation primary hippocampal neurons were transfected with Marcks-GFP in order to visualize the neurons with fluorescence microscopy.
ADDL (Abeta-derived diffusible ligands) preparation (representing Aβo) was done according to Klein (Klein, 2002. Neurochemistry international, 41(5), pp. 345-52.). Abeta 1-42 was purchased from AnaSpec Inc. and dissolved in HFIP to homogenize the peptide. HFIP was then evaporated in a speedvac and Abeta film was dried at −20° C. overnight over desiccant. Abeta film was then resolubilised in 100% DMSO and further diluted (1/25) in Ham's F12 medium. Blanks were prepared by adding equal amounts of DMSO to Ham's F12 medium. Abeta and Blank solutions were incubated overnight at 4° C.
At day in-vitro 21 primary rat hippocampal neurons were treated with equal volume of Blank/ADDL solution amounting to 0 and 1000 nM ADDL. Cultures were kept at 37° C. 5% CO2 for 24 h before PFA fixation. Viability was assessed using the Live-Dead assay from Thermo Fisher Catalog number: L3224.

Assay [3] relates to phosphorylated TAU in brain. The assay is described as follows: in vivo TAU phosphorylation in brain of transgenic APP*PS1 mice, Western analysis. To be noted: 20 mg/kg daily subcutaneously, 5-month old APP*PS1 mice, versus vehicle. Details: species or system mouse. Here is the method:
Transgenic human 5-month old APP*PS1 mice (The Journal of Neuroscience, Sep. 1, 2000, 20(17):6452-6458) were treated daily subcutaneously with 20 mg/kg Compound 6 or for two weeks with Compound A:
At the end of the treatment period, mice were sacrificed and the corresponding brains were used for biochemical analysis.

Assay [4] deals with transgenic human APP mice. In words: Morris Water Maze test in transgenic APP mice. In kind it is in vivo, mouse. To be noted: 20 mg/kg subcutaneously, daily for 8 weeks, versus vehicle. The method, then:
Transgenic human 4-month old APP mice (THE JOURNAL OF BIOLOGICAL […] Vol. 274, No. 10, Issue of March 5, pp. 6483-6492, 1999) were treated subcutaneously, daily for 8 weeks with examplary Compound 6 at 20 mg/kg (FIG. 7). Cognition was assessed using the Morris Water Maze test. […] After the learning phase a probe test was conducted in which the platform was removed from the water bath to evaluate the spatial memory of the location of the platform.
Both indices indicate that compound treated mice have improved cognitive performance almost identical to wild type controls compared to vehicle treated mice.

The subject of assay [5] is CA1 pyramidal neurons in tgAPP mouse brain slices. The assay is described as follows: firing rate of CA1 neurons in brain slices of tgAPP mice, patch clamp. To be noted: 2 μM, 1 hr perfusion. The method, then:
Brain slices from wild type and tgAPP mice were incubated with DMSO or Compound 6. Neurons were stimulated with increasing currents and the frequency of action potentials was measured.
Acute sagittal brain slices from WT or hAPP mice were prepared by decapitation of the mice after isoflurane anaesthesia. Brains were removed quickly and immersed during 3-4 min in ice-cold freshly prepared cutting artificial cerebrospinal fluid (cutting aCSF) containing (in mM) 214 sucrose, 2.5 KCl, 2 CaCl2), 2 MgSO4, 1.25 NaH2PO2, 26 NaHCO3 and 10 glucose and oxygenated with 95% O2/5% CO2. Sagittal 350 μm slices were generated using a vibratome (VT 1000S; Leica Microsystems) and were incubated in standard carboxygenated aCSF (in mM: 125 NaCl, 2.5 KCl, 2 CaCl2), 2 MgSO4, 1.25 NaH2PO2, 26 NaHCO3 and 10 glucose, osmolarity 305 mOsm) at 34° C. during 20 min. The incubation continued at room temperature (RT) for another hour before each slice was transferred to a submerged recording chamber and perfused continuously with carboxygenated aCSF. […]
Dendritic firing rate of CA1 cells was recorded in response to hyperpolarizing and depolarizing steps (−0.4 to +0.45 nA, steps of 0.05 nA) after a 1 hr perfusion with vehicle or compound at 2 μM. […]
In general terms: Patch clamp records ionic current or voltage across a cell membrane.

Another assay has as its system mouse brain slices. The assay is described as follows: afterhyperpolarization of single action potentials in mouse brain slices. To be noted: slices incubated with compound versus vehicle. The method, then: A single spike was elicited by injecting a 2 ms depolarizing current pulse (35 pA) and action potential (AP) parameters were at baseline and after 25 min vehicle or compound perfusion.
Action potentials (AP) after electrical stimulation of mouse brain slices were analysed (FIG. 14).
The experiment was performed as described in Example 24.

The next assay addresses T1, RAP1A binding on PDE6δ (Homo sapiens, UniProt O43924).
T1 construct: expressed in transfected cells
In words: PDE6δ-STREP/HA pull-down from HEK293 cells with quantitative mass spectrometry of interactors. To be noted: 1 hour incubation of 1 μM. It is filed as cell-based. The text has this:
PDE6δ together with associated proteins was precipitated from a cellular extract either in the presence or absence of Compound A:
Using mass spectrometry based techniques interacting proteins were quantitatively identified in function of compound presence (FIG. 11).
In the absence of Compound A a host of interacting proteins were identified including known interactors such as Arl3 and RPGR. […] This effect is highly specific since a non-prenylated interactor of PDE6δ such as Arl3 which bind PDE6δ via different mechanisms is not impacted.
The cDNA encoding human PDE6δ was fused with a STREP-HA tag encoding DNA sequence and expressed in HEK293 cells using a standard expression vector. The bait sequence was verified by sequencing. […] Bait expression and solubility was monitored by immunoblotting using anti-HA antibodies. […]
Affinity purification and mass spectrometrical analysis of PDE6δ-strep-HA expressed in HEK293 cells was performed with three biological replicates for label free quantitative mass spectrometrical analysis. The samples were analyzed on a Thermo LTQ Orbitrap XL spectrometer using a C18 column, ESI and a 60 min gradient. The signals' intenstity are provided as 2 Log values and correlates to the concentration of the detected mass (number/amount of peptide). […]

Structures are written as SMILES.

T1 sequence (O43924 whole entry): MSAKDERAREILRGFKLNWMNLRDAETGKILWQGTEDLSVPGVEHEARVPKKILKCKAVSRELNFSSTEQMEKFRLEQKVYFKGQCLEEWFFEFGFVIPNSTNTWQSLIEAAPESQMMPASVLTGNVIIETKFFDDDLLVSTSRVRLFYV

Consider `O=C(NCCc1c[nH]c2ccc(F)cc12)c1cc(Cc2ccc(F)c(F)c2)on1` [Compound 2], for which the inhibition at 10 µM in assay [1] is 48%.
Regarding `c1ccc(Cn2c(-c3ccc(OC[C@H](C4CCNCC4)n4c(-c5ccccc5)nc5ccccc54)cc3)nc3ccccc32)cc1` [Deltarasin, reference compound], in the assay on M17-TAU P301L cells, the “effect on TAU-induced toxicity” value is listed as “lowered toxicity”. The “effect of the compound on lowering toxicity in PDE6δ silenced cells” value in the assay on PDE6δ silenced cells is “strongly reduced”.
For `O=C(NCCc1c[nH]c2ccc(F)cc12)c1cc(Cc2cc(F)cc(F)c2)on1` [Compound 3], in assay [1], the inhibition at 10 µM stood at 42%.
Still for that read-out and setting: then `O=C(NCCc1c[nH]c2ccc(F)cc12)c1cc(Cc2ccc(F)cc2)on1` [Compound 4], with 39%.
`O=C(NCCc1c[nH]c2ccc(F)cc12)c1cc(Cc2ccc(F)cc2F)on1` [Compound 1]: the inhibition at 10 µM in assay [1] was found to be 43%.
For `O=C(NCCc1c[nH]c2ccc(F)cc12)c1cc(Cc2ccccc2F)on1` [Compound 7], the inhibition at 10 µM in assay [1] was determined as 56%.
As for `O=C(NCCc1c[nH]c2ccc(F)cc12)c1cc(Cc2cc(F)ccc2F)on1` [Compound 6], in the assay on M17-TAU P301L cells, the “effect on TAU-induced toxicity” value is reported as “reduced toxicity”. For the same compound, the “effect of the compound on lowering toxicity in PDE6δ silenced cells” value with PDE6δ silenced cells was “strongly reduced”. Also, the “compound effect on reducing neurotoxicity in RAP1A silenced cells” value in the assay with RAP1A silenced cells was “strongly reduced”. Besides, the “Ca^2+ influx upon KCl depolarisation” value in assay [1] (1.5 μM, 45 mM KCl) is given as “significantly reduced”. In addition, in assay [1], the inhibition at 10 µM was determined as 43%. In addition, the “neuronal viability in Aβo treated neurons” value in assay [2] is recorded as “strongly rescued”. Further, the “TAU phosphorylation in brain extracts” value in [3] is “effectively reduced TAU phosphorylation”. Also, in assay [4], the “annulus crossing index in probe test” value is on record as “higher annulus crossing index score” and the “search path during training phase” value is listed as “reduced search path”. Further, the “frequency of action potentials at high stimulation” value in [5] is on record as “significantly lowered the frequency towards wild type level”. Besides, in the assay with mouse brain slices, the “afterhyperpolarization of action potentials” value is given as “increased”.
Consider `O=C(NCCc1c[nH]c2ccc(Cl)cc12)c1cc(Cc2cc(F)ccc2F)on1` [Compound A], for which, on RAP1A binding on PDE6δ, the “interaction of Arl3 (non-prenylated interactor) with PDE6δ” value is reported as “not impacted” and the “interaction of RAP1A with PDE6δ” value is “specifically reduced”.
For the compound `COC(=O)C1=C(C)NC(C)=C(C(=O)OC(C)C)C1c1cccc2nonc12` (stereo not shown) [isradepine], the “effect on TAU-induced toxicity” value with M17-TAU P301L cells is recorded as “lowered toxicity”.
In the case of `O=C(NCCc1c[nH]c2ccc(F)cc12)c1cc(Cc2cccc(F)c2F)on1` [Compound 5], in assay [1], the inhibition at 10 µM came to 42%.

Broadly, the inhibition is the drop in the measured response relative to a control, in per cent.
